From US7763733B2, “Ritonavir analogous compound useful as retroviral protease inhibitor, preparation of the ritonavir analogous compound and pharmaceutical composition for the ritonavir analogous compound” (Cristalia Produtos Quimicos Farmaceuticos Ltda., priority 2004, dated 2010)

Tests used:
HIV = conditions: anti-HIV activity test, values as described in U.S. Pat. No. 5,541,206; cited from earlier work
HIV pNL4-3 (subtype B) = assay: Antiviral activity in HIV-infected MT-4 cells (MTT cellular viability); type: cell-based; conditions: MOI 0.002, MTT staining at the sixth day, ritonavir as internal control
Description: The anti-HIV activity of the compound of the present invention was determined using MT-4 cells, a lymphocytic cell line established in culture, CD4^+, and expressing HIV-1 […] co-receptors. The cells were infected using a plate having 96 wells containing 10^4 cells/well. The cells were infected with MOI (Multiplicity Of Infection) of 0.002 (NIH requirement=0.001 to 0.01). The drugs were initially diluted in dimethyl sulfoxide (DMSO) to a final concentration of 20 mM and later in RPMI 1640 base medium to a concentration of 200 μM. […] The culture medium utilized for this procedure was RPMI 1640 including 10% bovine fetal serum, antibiotics […]/penicillin and L-glutamine. The most concentrated well has a final concentration of 10.000 μM being followed by the indicated dilutions: 2.0 μM; 0.400 μM; 0.0800 μM; 0.016 μM; 0.0032 μM; 0.00064 μM and 0.000128 μM. The ninth well is considered as the infection control, without adding the drug. Each line having […] infected wells is produced in triplicate for later statistics analyses. […]
The infection test is maintained in an incubator having 5% of CO2 at 37° C. and monitored daily using phase optical microscopy method to verify appearance of syncytia (multinuclear cells). […]

| anti-HIV activity (EC50, FIG. 2) in comparison with ritonavir and analogs (HIV pNL4-3 (subtype B)) | Compound | IC50 (HIV) |
| --- | --- | --- |
| – | CC(C)c1nc(CN(C)C(=O)NC(C(=O)NC(Cc2ccccc2)CC(O)C(Cc2ccccc2)NC(=O)OCc2cncs2)C(C)C)cs1 [ritonavir, (2S,3S,5S)-5-[N—[N—[[N-methyl-N-[(2-isopropyl-4-thiazolyl)methyl]amino]carbonyl]vanilyl]amino-2-[N [(5-thiazolyl)methoxycarbonyl]amino-1,6-diphenyl-3-hydroxyhexane] | 25 to 40 nM |
| – | CC(C)Cc1nc(CN(C)C(=O)N[C@H](C(=O)N[C@@H](Cc2ccccc2)C[C@H](O)[C@H](Cc2ccccc2)NC(=O)OCc2cncs2)C(C)C)cs1 [example 59G] | 110 to 130 nM |
| surprisingly superior activity | CC(C)c1nc(CN(C)C(=O)N[C@H](C(=O)N[C@@H](Cc2ccccc2)C[C@H](O)[C@H](Cc2ccccc2)NC(=O)[C@@H](NC(=O)N(C)Cc2csc(C(C)C)n2)C(C)C)C(C)C)cs1 [example 1C, (2S,3S,5S)-2,5-bis-[N—[N—[[N-methyl-N-[(2-isopropyl-4-thiazolyl)methyl]amino]carbonyl]valinyl]amino]-1,6-diphenyl-3-hydroxyhexane] | – |
| – | CC(C)c1nc(CN(C)C(=O)NC(C(=O)NC(Cc2ccccc2)CC(O)C(Cc2ccccc2)NC(=O)OCc2cnc(C(C)C)s2)C(C)C)cs1 (stereo not shown) [example 45C] | 36 to 40 nM |
